Some test systems named below: M19-MEL melanoma; RXF 393 renal; EKVX NSCLC; LXFL 529 NSCLC; UACC-62 melanoma; 786-0 renal; HOP-18 NSCLC; MCF7 breast; MDA-MB-435; MDA-MB-231 breast; T-47D breast; PC-3 prostate.
Experiment in all cases: growth of human tumour cells (NCI), 48 h

The structures appear in SMILES notation.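 Five concentrations, 48 hours, 96-well plates. GI50 = concentration required for 50% inhibition of growth. At the TGI there is no net growth.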

`Cc1cc2c(C(C)C)c(O)c(O)c(C=Nc3ccccc3)c2c(O)c1-c1c(C)cc2c(C(C)C)c(O)c(O)c(C=Nc3ccccc3)c2c1O`: the TGI with M19-MEL melanoma, in the experiment on RXF 393 renal, with EKVX NSCLC, with LXFL 529 NSCLC and in the experiment with UACC-62 melanoma was greater than 100 µM throughout.

`CC1=C/C(=C2/N=C(N(C)C)SS2)C(C)=N1`: the TGI in the experiment with 786-0 renal, in the experiment on M19-MEL melanoma, in the experiment on RXF 393 renal, in the experiment on EKVX NSCLC, in the experiment on LXFL 529 NSCLC and in the experiment with HOP-18 NSCLC was greater than 100 µM each time.

In the case of `CCCCS(=O)CC(CO)NC(=O)/C=C/c1c(C)[nH]c(=O)[nH]c1=O` (stereo not drawn), the TGI was 51 µM in the experiment on MCF7 breast; 18.1 µM with M19-MEL melanoma; 51.3 µM in the experiment with RXF 393 renal; 43 µM in the experiment on EKVX NSCLC; 183 µM in the experiment on HOP-18 NSCLC; 32 µM in the experiment with UACC-62 melanoma.

As to `C[C@]12CCc3sc(-c4cccc(F)c4)nc3C1=CC[C@@H]1[C@@H]2CC[C@]2(C)C(=O)CC[C@@H]12`, the GI50 in the experiment with MDA-MB-435 was 2.97 µM; in the experiment with MCF7 breast it was 1.78 µM; with RXF 393 renal, 1.41 µM; with MDA-MB-231 breast it was 2.6 µM; with T-47D breast, 2 µM; with PC-3 prostate, 3.08 µM. In addition, the figures for the GI50 in the experiment with EKVX NSCLC and with UACC-62 melanoma were 4.79 µM and 1.9 µM, respectively. Besides, the TGI was greater than 100 µM in the experiment with MDA-MB-435; 4.26 µM with MCF7 breast; 2.94 µM with RXF 393 renal; 7.34 µM in the experiment with MDA-MB-231 breast; 5.24 µM in the experiment on T-47D breast; 14.2 µM in the experiment with PC-3 prostate. Besides, the TGI with EKVX NSCLC was 87.2 µM; in the experiment with UACC-62 melanoma, 5.7 µM.

For `O=C1CCCN1CCCN=c1cc2n(-c3ccc(Cl)cc3)c3ccccc3nc-2cc1Nc1ccc(Cl)cc1`, the TGI in the experiment with MCF7 breast was 25.8 µM; in the experiment on M19-MEL melanoma, 5.45 µM; with RXF 393 renal, 11.3 µM; in the experiment on EKVX NSCLC it was 28.1 µM; with HOP-18 NSCLC it was greater than 92.4 µM; with UACC-62 melanoma it was 26.2 µM.

For `O=c1c2c3c(sc2nc2n1N=C(c1ccc([N+](=O)[O-])cc1)CS2)CCCC3`, the TGI in the experiment on 786-0 renal, in the experiment on MDA-MB-435, in the experiment with MCF7 breast, with RXF 393 renal, in the experiment with MDA-MB-231 breast and in the experiment with T-47D breast was greater than 100 µM in each case. The TGI with PC-3 prostate, in the experiment on EKVX NSCLC and with UACC-62 melanoma was greater than 100 µM in each case.

On to `Cn1c(=O)c2nc(NCCO)cnc2n(C)c1=O`, for which the TGI in the experiment with M19-MEL melanoma was greater than 100 µM; in the experiment on RXF 393 renal, 81.5 µM; in the experiment on EKVX NSCLC, greater than 100 µM; with LXFL 529 NSCLC, greater than 100 µM; with UACC-62 melanoma, greater than 100 µM.

With `O=C(c1ccccc1)c1nn(-c2ccccc2)c2nc3nc(-c4ccccc4)cc(=O)n3nc12`, the GI50 is 18.1 µM in the experiment on MDA-MB-435; 26 µM in the experiment with RXF 393 renal; 26.2 µM with MDA-MB-231 breast; 28.9 µM in the experiment with T-47D breast; 32.4 µM in the experiment on PC-3 prostate; 22.2 µM in the experiment with EKVX NSCLC. Further, in the experiment on UACC-62 melanoma, the GI50 was 29.4 µM. Besides, the TGI is 48.3 µM with MDA-MB-435; greater than 100 µM in the experiment on RXF 393 renal; greater than 100 µM in the experiment on MDA-MB-231 breast; 99.5 µM in the experiment with T-47D breast; greater than 100 µM with PC-3 prostate; 58.2 µM in the experiment with EKVX NSCLC. Further, in the experiment on UACC-62 melanoma, the TGI worked out at 89.2 µM.

As to `CCc1c(C)c2ccc(OCC(=O)N=Nc3c(O)[nH]c4ccccc34)c(C)c2oc1=O`, the values for the GI50 with MCF7 breast and in the experiment with EKVX NSCLC were 0.992 µM and greater than 33.3 µM, respectively. The TGI with MCF7 breast, in the experiment on EKVX NSCLC and in the experiment on UACC-62 melanoma was greater than 33.3 µM in each case.

On to `O=C1CSC(C(N=Nc2ccc(Cl)cc2)c2nc3ccccc3[nH]2)=N1` (stereo not drawn), for which the TGI in the experiment with M19-MEL melanoma, in the experiment with EKVX NSCLC, in the experiment on LXFL 529 NSCLC and with UACC-62 melanoma was greater than 100 µM each time.

As for `NC(=O)SCC(=O)Nc1ccc2ncccc2c1`, the TGI in the experiment with 786-0 renal was 67.6 µM; in the experiment with MDA-MB-435, greater than 100 µM; in the experiment on MCF7 breast, greater than 100 µM; with MDA-MB-231 breast, greater than 100 µM; in the experiment on PC-3 prostate, greater than 100 µM; in the experiment on EKVX NSCLC, greater than 100 µM. The molecule further came in with a TGI in the experiment on UACC-62 melanoma greater than 100 µM.

The values above are taken from PubChem BioAssay (NCI).
